Like-named read-outs stand apart in the source and are kept apart here. Some results are limits rather than exact numbers.

Here are results for 25 molecules from patent US20220220106A1, “QUINOLINE COMPOUNDS AND PHARMACEUTICAL COMPOSITIONS AND USES THEREOF” (Academy of Military Medical Sciences, priority 2019, published 2022).

For data set [1], the system named is Enterovirus 71 (EV71) H strain. In words: In vitro anti-EV71 activity (antiviral activity in RD cells, CellTiter-Glo). The data set is classed as cell-based. The conditions noted are these: for in vitro anti-EV71 activity, in words: EV71, RD cells; for IC50: Enterovirus A, 96 h. In a few lines:
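RD cells infected with 100TCID50 EV71 in DMEM+2% FBS, with compound in 10-point three-fold dilutions, cultured 4 days at 37° C. Cell viability by CellTiter-Glo luminescence; inhibition rate relative to cell control fitted to S-curve for IC50. TD50 derived likewise; SI=TD50/IC50.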
In general terms: In ATP-based viability assays light output follows the ATP content of the culture.

Data set [2] can be described thus: Water solubility in saturated aqueous solution (HPLC, one-point method). The data set is classed as physicochemical. Particulars: for Water solubility: deionized water, 25° C. As for the experimental part: By measuring the solubility of compound in a saturated aqueous solution, the water solubility of the compound was further investigated.
Preparation of Supersaturated Solution:
(1) About 1 mg of the compound to be tested was weighed and added to a 25 mL tube;
(2) 5 mL of deionized water was added, shaken well, placed in a vortex shaker and mixed for 30 seconds, then treated ultrasonically for 30 seconds;
(3) The tube was placed in a constant temperature water bath, and allowed to stand in a constant temperature water bath at 25° C. for 1 hour;
(4) The operation of (2) was repeated, and the standing at constant temperature of 25° C. was continued for 1 hour;
(5) The prepared supersaturated solution supernatant was taken out and placed in a centrifuge tube, centrifuged at 15000 rpm for 5 minutes, and the upper centrifugate was taken out for later use.
Liquid Chromatography Method:
(1) Chromatographic column: Agilent XDB Eclipse C18, 25 cm×4.6 mm×5 μm liquid chromatography column.
(2) Mobile phase: Phase A: water (0.1% trifluoroacetic acid); Phase B: acetonitrile.
(3) Flow rate: 1.0 mL/min.
(4) Sampling volume: 10 μl.
Preparation of standard solution: 1.0 mg of the sample to be tested was accurately weighed, added to a 10 mL volumetric flask, dissolved in methanol as solvent, metered to a constant volume of 10 mL, the concentration of solution was calculated, and it was used as a standard solution for later use.
By using the one-point method, the chromatographic peak area of the standard solution of the sample to be tested was determined, and then the peak area of the supersaturated compound was determined, and the solubility of the compound to be tested in water was calculated accordingly.

The mark [3] stands for this setting: EV71 H strain, RD cells, 4 days, CellTiter-Glo, read-out: IC50.

Broadly, the IC50 is the concentration at which inhibition is half-maximal. In general, melting point refers to the temperature of the solid-liquid transition. For the molecule `CC(=O)/C=C/c1cnc2ccc(-c3ccc(C)nc3)cc2c1Nc1cccc(C(F)(F)F)c1` [HTL-2-38, (E)-6-[3-(6-methyl)pyridyl]-4-[3-(trifluoromethyl)phenyl]aminoquinoline-3-butenone], the melting point is 172 to 174 °C. In addition, in data set [1], the “in vitro anti-EV71 activity, in words” value is “moderate anti-EV71 activity”. The half-maximal inhibitory concentration (IC50) in data set [1] (setting [3]) worked out at 2850 ± 1200 nM.

The molecule `NC(=O)c1ccc(-c2ccc3ncc4oc(=O)n(-c5cccc(C(F)(F)F)c5)c4c3c2)cc1` [HTL-5-21, 8-(4-carbamoyl)phenyl-1-[3-(trifluoromethyl)phenyl]oxazolo[5,4-c]quinolin-2(1H)-one] came in with a melting point of 294 to 296 °C. The “in vitro anti-EV71 activity, in words” value in data set [1] is given as “moderate inhibitory activity”. Moreover, in data set [1] (setting [3]), the IC50 worked out at 2000 ± 300 nM.

As to `Nc1cccc(Nc2ccc3ncc4ccc(=O)n(-c5cccc(C(F)(F)F)c5)c4c3c2)c1` [HTL-6-11, 9-(3-aminophenyl)imino-2-oxo-1-[3-(trifluoromethyl)phenyl]-1,2-dihydrobenzo[h][1,6]naphthyridine], the “in vitro anti-EV71 activity, in words” value in data set [1] was “moderate activity”. Besides, the IC50 in data set [1] (setting [3]) is 890 nM.

As for `Nc1cccc(Nc2ccc3ncc4ccc(=O)n(-c5cccc(C(F)(F)F)c5)c4c3c2)n1` [HTL-6-12, 9-[2-(6-aminopyridyl)]imino-2-oxo-1-[3-(trifluoromethyl)phenyl]-1,2-dihydrobenzo[h][1,6]naphthyridine], the “in vitro anti-EV71 activity, in words” value in data set [1] is recorded as “moderate activity”. Moreover, the IC50 in data set [1] (setting [3]) stood at 1230 ± 220 nM.

For `NC(=O)/C=C/c1ccc2ncc3oc(=O)n(-c4cccc(C(F)(F)F)c4)c3c2c1` [HTL-6-30, (E)-8-(2-carbamoyl-vinyl)-1-[3-(trifluoromethyl)phenyl]oxazolo[5,4-c]quinolin-2(1H)-one], the melting point lay within 291 to 292 °C. The “in vitro anti-EV71 activity, in words” value in data set [1] is recorded as “moderate inhibitory activity”. The IC50 in data set [1] (setting [3]) was determined as 3700 ± 210 nM.

In the case of `CCC(=O)Nc1ccc(-c2ccc3ncc4ccc(=O)n(-c5cccc(C(F)(F)F)c5)c4c3c2)cn1` [HTL-6-45, 9-[3-(6-propionylamino)pyridyl]-2-oxo-1-[3-(trifluoromethyl)phenyl]-1,2-dihydrobenzo[h][1,6]naphthyridine], the IC50 in data set [1] (setting [3]) turned out to be 27 ± 10 nM. Moreover, in data set [2], the Water solubility amounted to 0.39 µg/mL.

As to `O=c1ccc2cnc3ccc(-c4ccc5ncccc5c4)cc3c2n1-c1cccc(C(F)(F)F)c1` [HTL-6-47, 9-(6-quinolyl)-2-oxo-1-[3-(trifluoromethyl)phenyl]-1,2-dihydrobenzo[h][1,6]naphthyridine], the melting point fell in the range of 196 to 197 °C. For the same molecule, in data set [1] (setting [3]), the IC50 worked out at 250 ± 230 nM.

For the molecule `O=c1ccc2cnc3ccc(-c4cccnc4F)cc3c2n1-c1cccc(C(F)(F)F)c1` [HTL-6-48, 9-[3-(2-fluoro)pyridyl]-2-oxo-1-[3-(trifluoromethyl)phenyl]-1,2-dihydrobenzo [h][1,6]naphthyridine], in data set [1], the “in vitro anti-EV71 activity, in words” value is on record as “high activity”. For the same molecule, in data set [1] (setting [3]), the IC50 was determined as 59 nM. Further, in data set [2], the “water solubility, in words” value is on record as “relatively high water solubility” and the Water solubility turned out to be 5.88 µg/mL.

On to `Cc1ncccc1-c1ccc2ncc3ccc(=O)n(-c4cccc(C(F)(F)F)c4)c3c2c1` [HTL-6-49, 9-[3-(2-methyl)pyridyl]-2-oxo-1-[3-(trifluoromethyl)phenyl]-1,2-dihydrobenzo[h][1,6]naphthyridine], for which the IC50 in data set [1] (setting [3]) was 70 ± 10 nM.

On to `O=c1ccc2cnc3ccc(-c4cc[nH]n4)cc3c2n1-c1cccc(C(F)(F)F)c1` [HTL-6-50, 9-[(1H)-3-pyrazolyl]-2-oxo-1-[3-(trifluoromethyl)phenyl]-1,2-dihydrobenzo[h][1,6]naphthyridine], for which the melting point is 283 to 286 °C. Further, the IC50 in data set [1] (setting [3]) is more than 200000 nM.

Regarding `O=c1ccc2cnc3ccc(-c4ccc(F)nc4)cc3c2n1-c1cccc(C(F)(F)F)c1` [HTL-7-01, 9-[3-(6-fluoro)pyridyl]-2-oxo-1-[3-(trifluoromethyl)phenyl]-1,2-dihydrobenzo[h][1,6]naphthyridine], in data set [1] (setting [3]), the IC50 is 70 ± 10 nM. This molecule showed a Water solubility in data set [2] of 0.42 µg/mL.

Consider `O=C1Cc2cc(-c3ccc4ncc5ccc(=O)n(-c6cccc(C(F)(F)F)c6)c5c4c3)ccc2N1` [HTL-7-04, 9-[5-(2-oxo)indolyl]-2-oxo-1-[3-(trifluoromethyl)phenyl]-1,2-dihydrobenzo[h][1,6]naphthyridine], for which the IC50 in data set [1] (setting [3]) was found to be 10500 ± 560 nM.

With `CCCC(=O)Nc1ccc(-c2ccc3ncc4ccc(=O)n(-c5cccc(C(F)(F)F)c5)c4c3c2)cn1` [HTL-7-05, 9-[3-(6-butyrylamino)pyridyl]-2-oxo-1-[3-(trifluoromethyl)phenyl]-1,2-dihydrobenzo[h][1,6]naphthyridine], the IC50 in data set [1] (setting [3]) came to 130 ± 60 nM.

Molecule `COc1ncc(-c2ccc3ncc4ccc(=O)n(-c5cccc(C(F)(F)F)c5)c4c3c2)cn1` [HTL-7-06, 9-[5-(2-methoxy)pyrimidyl]-2-oxo-1-[3-(trifluoromethyl)phenyl]-1,2-dihydrobenzo[h][1,6]naphthyridine] yielded a melting point of 262 to 264 °C. Besides, in data set [1] (setting [3]), the IC50 was found to be 50 ± 10 nM.

`CCCCC(=O)Nc1ccc(-c2ccc3ncc4ccc(=O)n(-c5cccc(C(F)(F)F)c5)c4c3c2)cn1` [HTL-7-08, 9-[3-(6-valerylamino)pyridyl]-2-oxo-1-[3-(trifluoromethyl)phenyl]-1,2-dihydrobenzo[h][1,6]naphthyridine]: the IC50 in data set [1] (setting [3]) amounted to 200 ± 20 nM.

`O=C(Cc1ccccc1)Nc1ccc(-c2ccc3ncc4ccc(=O)n(-c5cccc(C(F)(F)F)c5)c4c3c2)cn1` [HTL-7-10, 9-[3-(6-phenylacetylamino)pyridyl]-2-oxo-1-[3-(trifluoromethyl)phenyl]-1,2-dihydrobenzo[h][1,6]naphthyridine]: the IC50 in data set [1] (setting [3]) amounted to 390 ± 180 nM.

Molecule `COc1ccc(CC(=O)Nc2ccc(-c3ccc4ncc5ccc(=O)n(-c6cccc(C(F)(F)F)c6)c5c4c3)cn2)cc1` [HTL-7-11, 9-{3-[6-(4-methoxy)phenylacetylamino]pyridyl}-2-oxo-1-[3-(trifluoromethyl)phenyl]-1,2-dihydrobenzo[h][1,6]naphthyridine] displayed a melting point of 241 to 243 °C. The IC50 in data set [1] (setting [3]) was 95 ± 7 nM.

In turn, `O=c1ccc2cnc3ccc(C4=CCC5(CC4)OCCO5)cc3c2n1-c1cccc(C(F)(F)F)c1` [HTL-7-13, 9-(1,4-dioxa-spiro[4.5]dec-7-en-8-yl)-2-oxo-1-[3-(trifluoromethyl)phenyl]-1,2-dihydrobenzo[h][1,6]naphthyridine] displayed a melting point of 210 to 211 °C. In data set [1] (setting [3]), the IC50 is 26300 ± 12900 nM.

As to `O=C(Nc1ccc(-c2ccc3ncc4ccc(=O)n(-c5cccc(C(F)(F)F)c5)c4c3c2)cn1)OCc1ccccc1` [HTL-7-14, 9-[3-(6-benzyloxyamido)pyridyl]-2-oxo-1-[3-(trifluoromethyl)phenyl]-1,2-dihydrobenzo[h][1,6]naphthyridine], the IC50 in data set [1] (setting [3]) turned out to be 23700 ± 1020 nM.

`O=C(Nc1ccc(-c2ccc3ncc4ccc(=O)n(-c5cccc(C(F)(F)F)c5)c4c3c2)cn1)Oc1ccccc1` [HTL-7-15, 9-[3-(6-phenoxyamido)pyridyl]-2-oxo-1-[3-(trifluoromethyl)phenyl]-1,2-dihydrobenzo[h][1,6]naphthyridine] displayed an IC50 in data set [1] (EV71, RD) of 90 ± 20 nM.

With `CN(C)c1ccc(-c2ccc3ncc4ccc(=O)n(-c5cccc(C(F)(F)F)c5)c4c3c2)cn1` [HTL-7-16, 9-[3-(6-N,N-dimethyl)pyridyl]-2-oxo-1-[3-(trifluoromethyl)phenyl]-1,2-dihydrobenzo[h][1,6]naphthyridine], the half-inhibitory concentration (IC50) in data set [1] (setting [3]) turned out to be 90 ± 10 nM.

Regarding `O=c1ccc2cnc3ccc(-c4ccc(N5CCOCC5)nc4)cc3c2n1-c1cccc(C(F)(F)F)c1` [HTL-7-18, 9-[3-(6-morpholin-4-yl)pyridyl]-2-oxo-1-[3-(trifluoromethyl)phenyl]-1,2-dihydrobenzo[h][1,6]naphthyridine], the IC50 in data set [1] (setting [3]) is 1800 ± 1170 nM.

`COc1cc(-c2ccc3ncc4ccc(=O)n(-c5cccc(C(F)(F)F)c5)c4c3c2)cnc1N` [HTL-7-19, 9-[3-(6-amino-5-methoxy)pyridyl]-2-oxo-1-[3-(trifluoromethyl)phenyl]-1,2-dihydrobenzo[h][1,6]naphthyridine]: the melting point fell in the range of 233 to 234 °C. The IC50 in data set [1] (setting [3]) is 45 ± 10 nM.

For `O=c1ccc2cnc3ccc(-c4ccc(N5CCCC5)nc4)cc3c2n1-c1cccc(C(F)(F)F)c1` [HTL-7-20, 9-[3-(6-pyrrolidinyl)pyridyl]-2-oxo-1-[3-(trifluoromethyl)phenyl]-1,2-dihydrobenzo[h][1,6]naphthyridine], in data set [1] (setting [3]), the IC50 stood at 100 ± 10 nM.

On to `CC(C)(C)OC(=O)Nc1ccc(-c2ccc3ncc4ccc(=O)n(-c5cccc(C(F)(F)F)c5)c4c3c2)cn1` [HTL-7-21, 9-[3-(6-tert-butoxycarbonylamino)pyridyl]-2-oxo-1-[3-(trifluoromethyl)phenyl]-1,2-dihydrobenzo[h][1,6]naphthyridine], for which the IC50 in data set [1] (setting [3]) worked out at 2080 ± 2290 nM.
